Test results: patent publication US9309222B2, “Phenyl linked quinolinyl modulators of RORγt” (Janssen Pharmaceutica NV, priority 2012, dated 2016)
Where a name gives a salt, the structure may show the parent alone.

Tests used:
human RORγt LBD = molecular target: T1, human RORγt LBD (Homo sapiens, UniProt P51449); assay: RORγt reporter assay (GAL4-RORγt LBD luciferase in HEK293T cells); type: cell-based; conditions: for IC50: HEK293T cells, 24 hours compound treatment; for inhibition at 6 µM: HEK-293T, read-out: RORγt reporter Assay, % inhibition @ 6 μM, HEK293T cells, 6 μM compound
T1 construct: expressed in transfected cells
T1 sequence (P51449 258-518): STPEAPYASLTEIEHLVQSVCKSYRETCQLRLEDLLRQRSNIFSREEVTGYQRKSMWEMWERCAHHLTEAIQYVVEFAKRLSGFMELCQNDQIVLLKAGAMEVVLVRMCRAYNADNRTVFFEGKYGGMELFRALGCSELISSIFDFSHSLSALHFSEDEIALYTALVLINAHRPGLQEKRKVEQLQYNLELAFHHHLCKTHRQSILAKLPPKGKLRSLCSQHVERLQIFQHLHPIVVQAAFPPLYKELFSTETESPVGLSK
From the text: A reporter assay was used to test functional activity of RORγt modulatory compounds on transcriptional activation driven by the RORγt LBD. Cells used in the assay were co-transfected with two constructs. The first construct, pBIND-RORγt LBD, contained the wild type human RORγt LBD fused to the DNA binding domain of the GAL4 protein. The second construct, pGL4.31 (Promega Cat no. C935A), contained multiple GAL4 responsive DNA elements upstream of firefly luciferase. […] The mutant construct was called pBIND-RORγt-AF2.
The pBIND vector contains the GAL4 DNA Binding Domain (GAL4 DBD) and the renilla luciferase gene under control of the SV40 promoter. Renilla luciferase expression serves as a control for transfection efficiency and cell viability.
The reporter assay was performed by transiently transfecting HEK293T cells with 5 ng of pBIND-RORγt LBD or pBIND-RORγt LBD-AF2 and 5 μg pGL4.31 (Promega Cat no. C935A) using Fugene 6 (Invitrogen Cat no. E2691) at a 1:6 ratio of DNA:Fugene 6 in a T-75 flask in which cells were at least 80% confluent. Twenty four hours after bulk transfection, cells were plated into 96-well plates at 50,000 cells/well in phenol-red free DMEM containing 5% Lipid Reduced FCS and Pen/Strep. Six hours after plating, cells were treated with compounds for 24 hours. Media was removed and cells were lysed with 50 μL 1× Glo Lysis Buffer (Promega). Dual Glo Luciferase Reagent (50 μL/well) was then added and firefly luciferase luminescence was read on an Envision after a ten minute incubation. Finally, Stop and Glo reagent (50 μL/well) was added and renilla luciferase luminescence was read on an Envision after a ten minute incubation. To calculate the effect of compounds on RORγt activity, the ratio of firefly to renilla luciferase was determined and plotted against compound concentration. Agonist compounds increase RORγt-driven luciferase expression, and antagonist or inverse agonist compounds decrease luciferase expression.

[1] = molecular target: T2, human RORγt ligand binding domain (RORγt LBD) (Homo sapiens, UniProt P51449); assay: RORγt ThermoFluor assay (thermal shift, ligand binding affinity); conditions: estimated from concentration response of thermal shift
T2 construct: His-tag (N); TurboTEV protease cleavage site (ENLYFQG) (N); made in house; host or cells: E. coli (pHIS1, modified pET vector)
T2 sequence (P51449 with tags, fused parts or gaps): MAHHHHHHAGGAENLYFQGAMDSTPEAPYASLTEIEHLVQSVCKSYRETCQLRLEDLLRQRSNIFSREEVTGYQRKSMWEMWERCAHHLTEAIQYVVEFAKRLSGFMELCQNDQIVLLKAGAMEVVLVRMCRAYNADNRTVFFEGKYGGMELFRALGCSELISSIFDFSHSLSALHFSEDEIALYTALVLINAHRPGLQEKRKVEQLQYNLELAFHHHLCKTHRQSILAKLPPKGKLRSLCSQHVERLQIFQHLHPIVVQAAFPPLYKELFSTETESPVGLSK
Method: This approach is applicable to a wide variety of systems, and rigorous in theoretical interpretation through quantitation of equilibrium binding constants (KD).
The shift in the melting point described as a ΔTm is proportional to the concentration and affinity of the ligand.
RORγt ThermoFluor® Assay Construct
Protein and compound solutions are dispensed into black 384-well polypropylene PCR microplates (Abgene) and overlayed with silicone oil (1 μL Fluka, type DC 200) to prevent evaporation.
Fluorescence was measured by continuous illumination with UV light (Hamamatsu LC6) supplied via fiber optic and filtered through a band-pass filter (380-400 nm; >6 OD cutoff). Fluorescence emission of the entire 384-well plate was detected by measuring light intensity using a CCD camera (Sensys, Roper Scientific) filtered to detect 500±25 nm, resulting in simultaneous and independent readings of all 384 wells. Images were collected at each temperature, and the sum of the pixel intensity in a given area of the assay plate was recorded versus temperature. Reference wells contained RORγt without compounds, and the assay conditions were as follows: • 0.065 mg/mL RORγt • 60 μM 1,8-ANS • 100 mM Hepes, pH 7.0 • 10 mM NaCl • 2.5 mM GSH • 0.002% Tween-20
Project compounds were arranged in a pre-dosed mother plate (Greiner Bio-one) wherein compounds are serially diluted in 100% DMSO by 1:2 from a high concentration of 10 mM over 12 columns within a series (column 12 is a reference well containing DMSO, no compound).
The compounds were robotically dispensed directly into assay plates (1×=[…]) using a Hummingbird capillary liquid handling instrument (Digilab). Following compound dispense, protein and dye in buffer was added to achieve the final assay volume of 3 μL, followed by 1 μL of silicone oil.

Row | Structure (SMILES) | IC50 (human RORγt LBD) | inhibition at 6 µM (human RORγt LBD) | Kd [1]
1 | CC(=O)N1CCC(C(O)(c2ccc3nc(C(F)(F)F)c(-c4ccccc4)c(C(F)(F)F)c3c2)c2cncn2C)CC1 (racemic) [Example 181a, 1-(4-(Hydroxy(1-methyl-1H-imidazol-5-yl)(3-phenyl-2,4-bis(trifluoromethyl)quinolin-6-yl)methyl)piperidin-1-yl)ethanone] | 140 nM | 101% | 16 nM
2 | COc1nc2c(C)cc(C(O)(c3ccc(C(F)(F)F)nc3)c3cncn3C)cc2c(C#N)c1-c1cccc(F)c1 (single isomer, unassigned) [Example 179b, 3-(3-Fluorophenyl)-6-(hydroxy(1-methyl-1H-imidazol-5-yl)(6-(trifluoromethyl)pyridin-3-yl)methyl)-2-methoxy-8-methylquinoline-4-carbonitrile] | 1300 nM | 98% | 6600 nM
3 | Cn1cncc1C(O)(c1ccc(Cl)cc1)c1ccc2nc(Cl)c(-c3ccccc3)c(Cl)c2c1F (stereo not drawn) [Example 163, (4-Chlorophenyl)(2,4-dichloro-5-fluoro-3-phenylquinolin-6-yl)(1-methyl-1H-imidazol-5-yl)methanol•TFA] | 1400 nM | 87% | 1200 nM
4 | CCCCc1c(-c2ccccc2)cnc2ccc(C(O)(c3ccncc3)c3cncn3C)cc12 (stereo not drawn) [Example 83, (4-Butyl-3-phenylquinolin-6-yl)(1-methyl-1H-imidazol-5-yl)pyridin-4-ylmethanol•TFA] | > 6000 nM | -3% | 4200 nM
5 | CC(C)(C)OC(=O)N1CCCC(C(O)(c2cccnc2)c2ccc3nc(Cl)c(-c4ccccc4)c(Cl)c3c2)C1 (stereo not drawn) [Example 5, tert-Butyl 3-((2,4-Dichloro-3-phenylquinolin-6-yl)(hydroxy)(pyridin-3-yl)methyl)piperidine-1-carboxylate] | 380 nM | 79% | 21000 nM
6 | CCN1CCC(C(O)(c2ccccc2)c2ccc3nc(C(F)(F)F)c(-c4ccccc4)c(C(F)(F)F)c3c2)CC1 (stereo not drawn) [Example 168, (1-Ethylpiperidin-4-yl)(phenyl)(3-phenyl-2,4-bis(trifluoromethyl)quinolin-6-yl)methanol•TFA] | ~6000 nM | 71% | 3300 nM
7 | CN1CCCC(C(O)(c2cccnc2)c2ccc3nc(Cl)c(-c4ccccc4)c(Cl)c3c2)C1 (stereo not drawn) [Example 94, (2,4-Dichloro-3-phenylquinolin-6-yl)(1-methylpiperidin-3-yl)pyridin-3-ylmethanol•TFA] | > 6000 nM | 43% | 2400 nM
8 | Cn1cncc1C(O)(c1ccc2nc(C(F)(F)F)c(-c3ccccc3)c(C#N)c2c1)c1ccccn1 (stereo not drawn) [Example 118, 6-(Hydroxy(1-methyl-1H-imidazol-5-yl)(pyridin-2-yl)methyl)-3-phenyl-2-(trifluoromethyl)quinoline-4-carbonitrile•TFA] | 370 nM | 94% | 360 nM
9 | OC(c1ccc(Cl)nc1)(c1cccc(Cl)c1)c1ccc2ncc(-c3ccccc3)c(Cl)c2c1 (stereo not drawn) [Example 60, (3-Chlorophenyl)(4-chloro-3-phenylquinolin-6-yl)(6-chloropyridin-3-yl)methanol] | ~1000 nM | 86% | 1300 nM

The next lines start with the values.

Row | IC50 (human RORγt LBD) | inhibition at 6 µM (human RORγt LBD) | Kd [1] | Structure (SMILES)
10 | ~3000 nM | 80% | 1300 nM | OC(c1cccnc1)(c1cccc(Cl)c1)c1ccc2ncc(-c3ccccc3)c(Cl)c2c1 (stereo not drawn) [Example 52, (3-Chlorophenyl)(4-chloro-3-phenylquinolin-6-yl)pyridin-3-ylmethanol]
11 | ~2000 nM | 91% | 1400 nM | CN(C)c1c(-c2ccccc2)c(Cl)nc2ccc(C(O)(c3cccnc3)c3cccc(Cl)c3)cc12 (stereo not drawn) [Example 42, [2-Chloro-4-(dimethylamino)-3-phenylquinolin-6-yl](3-chlorophenyl)pyridin-3-ylmethanol•TFA]
12 | > 6000 nM | 13% | 9100 nM | CN1CCN(c2nc3ccc(C(O)(c4ccncc4)c4cncn4C)cc3c(Cl)c2-c2ccccc2)CC1 (stereo not drawn) [Example 19, [4-Chloro-2-(4-methylpiperazin-1-yl)-3-phenylquinolin-6-yl](1-methyl-1H-imidazol-5-yl)pyridin-4-ylmethanol•TFA]
13 | 800 nM | 89% | 230 nM | COCOc1ccc(C(O)(c2cccnc2)c2ccc3nc(Cl)c(-c4ccccc4)c(Cl)c3c2)cc1 (stereo not drawn) [Example 23, (2,4-Dichloro-3-phenylquinolin-6-yl)[4-(methoxymethoxy)phenyl]pyridin-3-ylmethanol]
14 | ~4000 nM | 75% | 1100 nM | Cn1cncc1C(O)(c1ccncc1)c1ccc2nc(N3CCN(c4ccccc4)CC3)c(-c3ccccc3)c(Cl)c2c1 (stereo not drawn) [Example 77, [4-Chloro-3-phenyl-2-(4-phenylpiperazin-1-yl)quinolin-6-yl](1-methyl-1H-imidazol-5-yl)pyridin-4-ylmethanol•TFA]
15 | 4200 nM | 75% | 8300 nM | OC(c1ccncc1)(c1ccc2nc(Cl)c(-c3ccccc3)c(Cl)c2c1)c1ccccn1 (stereo not drawn) [Example 27, (2,4-Dichloro-3-phenylquinolin-6-yl)(pyridin-2-yl)pyridin-4-ylmethanol•TFA]
16 | > 6000 nM | 49% | 1200 nM | OC(c1cccnc1)(c1ccc2nc(Cl)c(-c3ccccc3)c(Cl)c2c1)C1CCCNC1 (stereo not drawn) [Example 93, (2,4-Dichloro-3-phenylquinolin-6-yl)(piperidin-3-yl)pyridin-3-ylmethanol•TFA]
17 | 1100 nM | 90% | 330 nM | CN(C)c1nc2ccc(C(O)(c3ccncc3)c3cncn3C)cc2c(O)c1-c1ccccc1 (stereo not drawn) [Example 108, 2-(Dimethylamino)-6-[hydroxy(1-methyl-1H-imidazol-5-yl)pyridin-4-ylmethyl]-3-phenylquinolin-4-ol•TFA]
18 | > 6000 nM | 41% | 1500 nM | Cc1noc(C)c1C(O)(c1ccc(Cl)cc1)c1ccc2nc(Cl)c(-c3ccccc3)c(Cl)c2c1 (stereo not drawn) [Example 133, (4-Chlorophenyl)(2,4-dichloro-3-phenylquinolin-6-yl)(3,5-dimethylisoxazol-4-yl)methanol•TFA]
19 | 1600 nM | 88% | 990 nM | COC(c1ccc2nc(Cl)c(-c3ccccc3)c(Cl)c2c1)(c1cnccn1)c1cncn1C (stereo not drawn) [Example 127, 2,4-Dichloro-6-(methoxy(1-methyl-1H-imidazol-5-yl)(pyrazin-2-yl)methyl)-3-phenylquinoline•TFA]
